The target of data set [1] is T1, recombinant human PREP (rhPREP) (Homo sapiens, UniProt P48147).
T1 sequence (P48147 1-710): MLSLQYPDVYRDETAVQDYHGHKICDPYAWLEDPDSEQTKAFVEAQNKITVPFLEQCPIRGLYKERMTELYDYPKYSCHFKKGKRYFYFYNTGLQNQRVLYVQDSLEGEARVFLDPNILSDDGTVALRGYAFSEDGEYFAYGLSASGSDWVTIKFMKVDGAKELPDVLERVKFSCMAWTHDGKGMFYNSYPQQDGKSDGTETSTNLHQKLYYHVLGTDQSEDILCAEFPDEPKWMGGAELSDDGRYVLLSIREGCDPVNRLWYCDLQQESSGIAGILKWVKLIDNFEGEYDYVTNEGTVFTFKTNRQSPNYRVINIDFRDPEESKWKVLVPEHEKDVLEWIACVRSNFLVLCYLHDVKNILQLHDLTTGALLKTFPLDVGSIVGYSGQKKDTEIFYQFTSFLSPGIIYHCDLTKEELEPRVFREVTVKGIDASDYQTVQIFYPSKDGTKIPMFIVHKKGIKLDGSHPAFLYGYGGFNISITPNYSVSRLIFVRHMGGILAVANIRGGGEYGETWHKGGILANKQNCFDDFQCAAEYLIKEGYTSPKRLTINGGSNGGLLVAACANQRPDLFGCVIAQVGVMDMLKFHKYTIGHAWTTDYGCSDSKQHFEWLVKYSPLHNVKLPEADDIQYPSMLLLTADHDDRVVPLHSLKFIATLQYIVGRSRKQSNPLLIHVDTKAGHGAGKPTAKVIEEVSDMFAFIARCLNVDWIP
The data set can be described thus: PREP enzymatic activity assay. In kind it is biochemical. To be noted: Z-Gly-Pro-AMC substrate. The protocol: 7-Amino-4-Methylcoumarin (AMC) release was detected by measuring fluorescence at Ex/Em 380/460 nm using a Multifunction Microplate Reader (Synergy 4, Biotek). All measurements were carried out in triplicate.

The target in data set [2] is T2, mouse plasma FAPα (Mus musculus, UniProt P97321).
T2 construct: from tissue; host or cells: mouse plasma (C57BL/6, EDTA)
T2 sequence (P97321 24-761 limits assumed): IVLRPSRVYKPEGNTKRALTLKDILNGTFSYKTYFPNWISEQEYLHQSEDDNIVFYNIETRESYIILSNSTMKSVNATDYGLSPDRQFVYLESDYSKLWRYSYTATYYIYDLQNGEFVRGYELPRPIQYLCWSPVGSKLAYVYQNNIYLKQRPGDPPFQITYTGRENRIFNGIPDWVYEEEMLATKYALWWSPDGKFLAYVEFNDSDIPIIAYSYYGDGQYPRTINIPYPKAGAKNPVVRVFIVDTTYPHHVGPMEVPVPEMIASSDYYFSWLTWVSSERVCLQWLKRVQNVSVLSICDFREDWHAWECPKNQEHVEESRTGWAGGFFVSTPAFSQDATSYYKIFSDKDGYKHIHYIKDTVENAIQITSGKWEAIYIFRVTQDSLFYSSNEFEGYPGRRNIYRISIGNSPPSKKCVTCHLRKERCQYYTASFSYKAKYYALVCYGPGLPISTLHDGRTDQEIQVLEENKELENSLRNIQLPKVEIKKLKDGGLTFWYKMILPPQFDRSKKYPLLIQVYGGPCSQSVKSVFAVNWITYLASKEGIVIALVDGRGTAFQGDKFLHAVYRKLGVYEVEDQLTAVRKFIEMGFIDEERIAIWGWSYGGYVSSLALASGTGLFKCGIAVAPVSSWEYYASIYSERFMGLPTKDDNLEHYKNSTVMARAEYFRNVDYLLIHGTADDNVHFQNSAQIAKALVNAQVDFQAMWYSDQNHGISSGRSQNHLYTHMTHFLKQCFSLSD
The data set can be described thus: FAPα enzymatic activity in mouse plasma. In kind it is biochemical. Conditions: C57BL/6 mouse plasma. The protocol: The blood sample was immediately centrifuged at approximately 9000 g at 4° C. for 5 minutes. Plasma was separated and stored at −80° C. in aliquots of 300 μL. […] The assay was performed for 1 hour at 37° C. protected from light. 7-Amino-4-Methylcoumarin (AMC) release was detected measuring fluorescence at an excitation wavelength of 380 nm and an emission wavelength of 460 nm using a Multifunction Microplate Reader (Synergy 4, Biotek). All measurements were carried out at least as a single point.

A short description of data set [3]: Intravenous and oral bioavailability in mice. To be noted: mouse, plasma; for AUC(0-t): oral (PO) 10 mg/kg single dose; for bioavailability: PO 10 mg/kg vs IV 2 mg/kg, read-out: F (bioavailability). In kind it is in vivo. The protocol:
The pharmacokinetic properties of exemplary test compounds were assayed after administration of an intravenous (IV) 2 mg/kg or oral (PO) 10 mg/kg single dose in mice. Exemplary test compounds were formulated at 0.4 and 1 mg/ml in a vehicle containing Poly-Ethylene Glycol 200 (PEG200; Cat. No. #P3015, Sigma Aldrich) and distilled water (dH2O) (50/50, v/v) as dosing solutions for intravenous and oral administration, respectively.
C57BL/6j and Balb/c mice, approximately 8-10 weeks old, were obtained from the vivarium Fundación Ciencia & Vida Chile (Santiago, Chile) and maintained in a temperature-controlled room with 12/12 hr light/dark schedule with food and water ad libitum. Animals were acclimated for a minimum period of 4 days upon arrival at the testing facility.
On the day of study, mice were weighed and identified by marking the tail with numbers using a non-toxic permanent marker for designation into the experimental groups (n=3 per group). Each mouse in the IV dosing groups received a systemic bolus of 2 mg/kg dosing solution via the caudal vein.
Non-dosed mice were used to collect samples of zero time points. […] Blood samples were centrifuged immediately at 9,000 g at 4° C. for 5 min and the plasma was separated.
The plasma samples were analyzed by QTRAP 4500 triple quadrupole mass spectrometer (Applied Biosystems SCIEX) in positive or negative ion mode depending on the tested compound and interfaced with an ekspert ultraLC 100-XL UPLC System (eksigent) to determine the concentration of the exemplary test compound. […] The precipitated samples were centrifuged at 6,100 g for 30 min at 4° C. Following centrifugation, an aliquot of each supernatant was transferred into a clean sample vial and diluted with two volumes of aqueous mobile phase (0.2% formic acid in water). Samples were injected onto a reverse phase analytical column (YMC Triart C18; 2.0×50 mm; 1.9 μm; YMC CO) and eluted with a gradient of 0.1 or 0.2% formic acid in Acetonitrile. Test compound and internal standard were monitored by a multiple reaction monitoring (MRM) experiment using Analyst software (v1.6.2, Applied Biosystems SCIEX). Quantitation was conducted using MultiQuant software (v2.1, Applied Biosystems SCIEX) and the resulting calibration curve was fitted with a linear or quadratic regression and 1/x weighting.
IV and PO PK parameters were calculated from the concentration-time data using Phoenix WinNonlin software (v6.4, Certara, Princeton, N.J.) by noncompartmental analysis. Area under the concentration-time curve (AUClast) was estimated using a log-linear trapezoidal method, from the dosing time to the last measurable concentration.

[4] abbreviates: PRXS-AMC substrate, read-out: mouse plasma FAPα (PRXS-AMC) (exo IC50).
Where [5] appears, read: Z-Gly-Pro-AMC substrate, read-out: mouse plasma FAPα (Z-Gly-Pro-AMC) (exo IC50).

Structures are written as SMILES. Like-named read-outs stand apart in the source and are kept apart here.

In general, IC50 refers to the point on the concentration scale where inhibition reaches its midpoint. One may read the AUC(0-t) as exposure summed from dosing to a finite time, without extrapolation to infinity. A higher AUC(0-t) goes with high exposure. Usually bioavailability stands for dose-corrected exposure relative to a reference, in per cent. For `N#C[C@@H]1CC(F)(F)CN1C(=O)CNC(=O)c1c[nH]c(=O)cc1-c1ccc(F)cc1` [Compound 109, (S)—N-(2-(2-cyano-4,4-difluoropyrrolidin-1-yl)-2-oxoethyl)-4-(4-fluorophenyl)-6-oxo-1,6-dihydropyridine-3-carboxamide], the IC50 in data set [1] was over 10 µM; in data set [2] (setting [4]), under 1 µM. The molecule further registered an AUC(0-t) in data set [3] of 2140 ng·h/mL. The bioavailability in data set [3] is 9%.

Take `N#C[C@@H]1CC(F)(F)CN1C(=O)CNC(=O)c1ccncc1-c1ccccc1` [Compound 13, (S)—N-(2-(2-cyano-4,4-difluoropyrrolidin-1-yl)-2-oxoethyl)-3-phenylisonicotinamide]: the results for the IC50 in data set [1], in data set [2] (setting [4]) and in data set [2] (setting [5]) were over 10 µM, under 1 µM and under 1 µM, respectively. In data set [3], this molecule had an AUC(0-t) of 760 ng·h/mL. Further, the bioavailability in data set [3] amounted to 27.9%.

On to `Cn1ncc2c(-c3cnccc3C(=O)NCC(=O)N3CC(F)(F)C[C@H]3C#N)cccc21` [Compound 87, (S)—N-(2-(2-cyano-4,4-difluoropyrrolidin-1-yl)-2-oxoethyl)-3-(1-methyl-1H-indazol-4-yl)isonicotinamide], for which the IC50 in data set [1] was over 10 µM; in data set [2] (setting [4]), under 1 µM; in data set [2] (setting [5]), under 1 µM.

Turning to `N#C[C@@H]1CC(F)(F)CN1C(=O)CNC(=O)c1ccncc1C1CC1` [Compound 24, (S)—N-(2-(2-cyano-4,4-difluoropyrrolidin-1-yl)-2-oxoethyl)-3-cyclopropylisonicotinamide], the figures for the IC50 in data set [1], in data set [2] (setting [4]) and in data set [2] (setting [5]) were 1 to 10 µM, under 1 µM and under 1 µM, respectively. In data set [3], the AUC(0-t) is 910 ng·h/mL. In addition, the bioavailability in data set [3] is 54%.

`C=Cc1cnccc1C(=O)NCC(=O)N1CC(F)(F)C[C@H]1C#N` [Compound 40, (S)—N-(2-(2-cyano-4,4-difluoropyrrolidin-1-yl)-2-oxoethyl)-3-vinylisonicotinamide]: the IC50 in data set [1] is 1 to 10 µM; in data set [2] (setting [4]), under 1 µM; in data set [2] (setting [5]), under 1 µM.

As to `N#C[C@@H]1CC(F)(F)CN1C(=O)CNC(=O)c1c[nH]c(=O)c2ccccc12` [Example 1, (S)—N-(2-(2-cyano-4,4-difluoropyrrolidin-1-yl)-2-oxoethyl)-1-oxo-1,2-dihydroisoquinoline-4-carboxamide], the half-maximal inhibitory concentration (IC50) in data set [1] is 1 to 10 µM; in data set [2] (setting [5]), under 1 µM. The same molecule registered an AUC(0-t) in data set [3] of 327 ng·h/mL. Further, in data set [3], the bioavailability worked out at 6.3%.

For the molecule `N#C[C@@H]1CC(F)(F)CN1C(=O)CNC(=O)c1c[nH]c(=O)c(-c2ccccc2)c1` [Compound 14, (S)—N-(2-(2-cyano-4,4-difluoropyrrolidin-1-yl)-2-oxoethyl)-6-oxo-5-phenyl-1,6-dihydropyridine-3-carboxamide], the 50% inhibitory concentration (IC50) in data set [1] is over 10 µM; in data set [2] (setting [4]) it was under 1 µM; in data set [2] (setting [5]), under 1 µM.

For the molecule `N#C[C@@H]1CC(F)(F)CN1C(=O)CNC(=O)c1ccncc1Cc1ccccc1` [Compound 50, (S)-3-benzyl-N-(2-(2-cyano-4,4-difluoropyrrolidin-1-yl)-2-oxoethyl)isonicotinamide], the IC50 in data set [1] is 1 to 10 µM; in data set [2] (setting [4]) it was under 1 µM; in data set [2] (setting [5]) it was under 1 µM. Also, the AUC(0-t) in data set [3] is 1090 ng·h/mL. For the same molecule, the bioavailability in data set [3] came out at 79.6%.

Take `N#C[C@@H]1CC(F)(F)CN1C(=O)CNC(=O)c1ccncc1-c1cc(F)cc(F)c1` [Compound 47, (S)—N-(2-(2-cyano-4,4-difluoropyrrolidin-1-yl)-2-oxoethyl)-3-(3,5-difluorophenyl)isonicotinamide]: the values for the IC50 in data set [1], in data set [2] (setting [4]) and in data set [2] (setting [5]) were over 10 µM, under 1 µM and under 1 µM, respectively.

Consider `N#C[C@@H]1CC(F)(F)CN1C(=O)CNC(=O)c1c[nH]c(=O)c2ccc(F)cc12` [Compound 26, (S)—N-(2-(2-cyano-4,4-difluoropyrrolidin-1-yl)-2-oxoethyl)-6-fluoro-1-oxo-1,2-dihydroisoquinoline-4-carboxamide], for which the values for the IC50 in data set [1], in data set [2] (setting [4]) and in data set [2] (setting [5]) were 1 to 10 µM, under 1 µM and under 1 µM, respectively.

Turning to `C=C(c1ccccc1)c1cnccc1C(=O)NCC(=O)N1CC(F)(F)C[C@H]1C#N` [Compound 122, (S)—N-(2-(2-cyano-4,4-difluoropyrrolidin-1-yl)-2-oxoethyl)-3-(1-phenylvinyl)isonicotinamide], the IC50 in data set [1] is over 10 µM; in data set [2] (setting [4]), under 1 µM.

With `N#C[C@@H]1CC(F)(F)CN1C(=O)CNC(=O)c1ccncc1-c1cc(Cl)ccc1F` [Compound 54, (S)-3-(5-chloro-2-fluorophenyl)-N-(2-(2-cyano-4,4-difluoropyrrolidin-1-yl)-2-oxoethyl)isonicotinamide], the IC50 in data set [1] is over 10 µM; in data set [2] (setting [4]), under 1 µM; in data set [2] (setting [5]) it was under 1 µM.

Turning to `N#C[C@@H]1CC(F)(F)CN1C(=O)CNC(=O)c1ccncc1N1CCOCC1` [Compound 88, N-[2-[(2S)-2-cyano-4,4-difluoro-pyrrolidin-1-yl]-2-oxo-ethyl]-3-morpholino-pyridine-4-carboxamide], the values for the IC50 in data set [1], in data set [2] (setting [4]) and in data set [2] (setting [5]) were over 10 µM, under 1 µM and under 1 µM, respectively.

These data come from patent publication US11780821B2, “Inhibitors of fibroblast activation protein” (Praxis Biotech LLC, priority 2017, dated 2023).
